Experimental data as given in US20020058696A1, “Chelate compound-containing antibacterial agent for helicobacter pylori” (DIRECTOR OF NTL. INST. OF AGROBIOLOGICAL RESOURCES , …, priority 2000, published 2002).

What was measured:
[1] = FAO/WHO Codex Alimentarius Commission, 1973; cited from earlier work
[2] = test system: Helicobacter pylori ATCC 43504 strain
Protocol: Helicobacter pylori (ATCC 43504 strain, purchased from American Type Culture Collection) was cultured with use of a 96-well plate. […] After inoculation of Helicobacter pylori, the plate was introduced in a sealed vessel of 2.5 liter volume, into which Anaero Pack-Helico (made by Mitsubishi Gas Chemical), an agent for absorbing oxygen and generating carbon dioxide gas, was also introduced, and cultured for 5 days under an anaerobic condition at 37° C.
Growth of Helicobacter pylori was determined by means of a 96-well plate reader with use of a 540 nm or 595 nm filter. Herein, as a control for absorbance determination, a medium without EDTA was used.

For `O=C(O)CN(CCN(CC(=O)O)CC(=O)O)CC(=O)O` [EDTA, Ethylenediaminetetraacetic acid], the “acceptable daily intake (ADI) as a food additive” value [1] is given as 2.5 mg/kg of weight.
For `O=C([O-])CN(CCN(CC(=O)O)CC(=O)O)CC(=O)[O-].[Na+].[Na+]` [disodium ethylenediaminetetraacetate], the “concentration at which growth of Helicobacter pylori is inhibited” value ([2]; ATCC 43504 strain, medium pH 8.0, cultured 5 days at 37° C under anaerobic condition, turbidity at 540 nm or 595 nm against control medium, from FIG. 1 / FIG. 2) was 0.025 to 1 mM, the “amount to be taken to inhibit growth of Helicobacter pylori” value ([2]; calculated for a human stomach volume of about 1.5 L, amount of the salt) was 14 to 558 mg and the “amount to be taken to inhibit growth of Helicobacter pylori, as free EDTA” value ([2]; calculated for a human stomach volume of about 1.5 L, expressed as free EDTA) was 11 to 438 mg. For the same compound, the “growth-inhibiting concentration converted into” value ([2]; conversion of 0.025-1 mM using molecular weight 372Da) was 9.3 to 372 mg/L.
